Test results reported in US10409869B2, “(R)- and (S)-1-(3-(3-N,N-dimethylaminocarbonyl)phenoxyl-4-nitrophenyl)-1-ethyl-N,N'-bis (ethylene)phosphoramidate, compositions and methods for their use and preparation” (OBI Pharma, Inc., priority 2015, dated 2019).

Columns and labels:
[1] = Body weight and toxicity in the orthotopic HepG2-GFP mouse model; type: in vivo, nude mice; conditions: intra-peritoneal, low (2.5 mg/kg) or high (5 mg/kg) dose
[2] = Hematology in monkeys, 2 mg/kg 30-min IV infusion; type: in vivo, Cynomolgus monkeys
Description: TH 3423 and TH 3424 were tested in […] naïve monkeys (1 male and one female for each compound at 2 mg/kg) with 30-min intravenous infusion, TK sampling: on Day 1 and Day 15: 0.25, 0.5, 0.75, 1 and 2 hr post infusion initiation. Serum chemistry and hematology: pre-dose (Day 1), day 5, day 8 (pre-dose), day 15 (pre-dose), day 22 and day 28. Clinical observation: Daily during the study, total 35 days. Food consumption: Daily during the study, total 35 days. Bodyweight measurement: Twice weekly for five weeks.

C[C@H](OP(=O)(N1CC1)N1CC1)c1ccc([N+](=O)[O-])c(Oc2cccc(C(=O)N(C)C)c2)c1 (single isomer, unassigned) [TH3424]
toxicity to the experimental mice [1]: no obvious toxicity
toxicity to the experimental mice ([1]; listed as TH2870-2): no obvious acute toxicity
% BASO ([2]; female, Day 1 (pre-dose)): 0.1%
% EOS ([2]; female, Day 1 (pre-dose)): 3.3%
% MONO ([2]; female, Day 1 (pre-dose)): 0.9%
% NEUT ([2]; female, Day 1 (pre-dose)): 72.8%
HCT ([2]; female, Day 1 (pre-dose)): 35.7%
HGB ([2]; female, Day 1 (pre-dose)): 118 g/L
LYM ([2]; female, Day 1 (pre-dose)): 22.9%
MCH ([2]; female, Day 1 (pre-dose)): 25.4 pg
MCHC ([2]; female, Day 1 (pre-dose)): 331 g/L
MCV ([2]; female, Day 1 (pre-dose)): 76.8 fL
MPV ([2]; female, Day 1 (pre-dose)): 13 fL
PCT ([2]; female, Day 1 (pre-dose)): 0.277%
PDW ([2]; female, Day 1 (pre-dose)): 15.4
PLT ([2]; female, Day 1 (pre-dose)): 2.13e+11 L⁻¹
RBC ([2]; female, Day 1 (pre-dose)): 4.65e+12 L⁻¹
RDW-CV ([2]; female, Day 1 (pre-dose)): 11.5%
RDW-SD ([2]; female, Day 1 (pre-dose)): 37.4 fL
WBC ([2]; female, Day 1 (pre-dose)): 1.164e+10 L⁻¹
abs_basos ([2]; female, Day 1 (pre-dose)): 1e+07 L⁻¹
abs_eos ([2]; female, Day 1 (pre-dose)): 3.9e+08 L⁻¹
abs_lymphs ([2]; female, Day 1 (pre-dose)): 2.66e+09 L⁻¹
abs_monos ([2]; female, Day 1 (pre-dose)): 1.1e+08 L⁻¹
abs_neuts ([2]; female, Day 1 (pre-dose)): 8.47e+09 L⁻¹
% EOS ([2]; female, Day 8 (pre-dose)): 1.50%
% MONO ([2]; female, Day 8 (pre-dose)): 0.20%
% NEUT ([2]; female, Day 8 (pre-dose)): 49.10%
HCT ([2]; female, Day 8 (pre-dose)): 39.30%
HGB ([2]; female, Day 8 (pre-dose)): 130.00 g/L
LYM ([2]; female, Day 8 (pre-dose)): 18.90%
MCH ([2]; female, Day 8 (pre-dose)): 25.30 pg
MCHC ([2]; female, Day 8 (pre-dose)): 331.00 g/L
MCV ([2]; female, Day 8 (pre-dose)): 76.30 fL
MPV ([2]; female, Day 8 (pre-dose)): 12.80 fL
PCT ([2]; female, Day 8 (pre-dose)): 0.50%
PDW ([2]; female, Day 8 (pre-dose)): 15.50
PLT ([2]; female, Day 8 (pre-dose)): 3.9e+11 L⁻¹
RBC ([2]; female, Day 8 (pre-dose)): 5.15e+12 L⁻¹
RDW-CV ([2]; female, Day 8 (pre-dose)): 11.20%
RDW-SD ([2]; female, Day 8 (pre-dose)): 36.20 fL
WBC ([2]; female, Day 8 (pre-dose)): 1.691e+10 L⁻¹
abs_basos ([2]; female, Day 8 (pre-dose)): 5.13e+09 L⁻¹
abs_eos ([2]; female, Day 8 (pre-dose)): 2.6e+08 L⁻¹
abs_lymphs ([2]; female, Day 8 (pre-dose)): 3.2e+09 L⁻¹
abs_monos ([2]; female, Day 8 (pre-dose)): 3e+07 L⁻¹
abs_neuts ([2]; female, Day 8 (pre-dose)): 8.29e+09 L⁻¹
% BASO ([2]; female, Day 15 (pre-dose)): 0.90%
% EOS ([2]; female, Day 15 (pre-dose)): 1.70%
% MONO ([2]; female, Day 15 (pre-dose)): 3.00%
% NEUT ([2]; female, Day 15 (pre-dose)): 80.8%
HCT ([2]; female, Day 15 (pre-dose)): 36.3%
HGB ([2]; female, Day 15 (pre-dose)): 125 g/L
LYM ([2]; female, Day 15 (pre-dose)): 13.60%
MCH ([2]; female, Day 15 (pre-dose)): 25.3 pg
MCHC ([2]; female, Day 15 (pre-dose)): 344 g/L
MCV ([2]; female, Day 15 (pre-dose)): 73.5 fL
MPV ([2]; female, Day 15 (pre-dose)): 12.5 fL
PCT ([2]; female, Day 15 (pre-dose)): 0.275%
PDW ([2]; female, Day 15 (pre-dose)): 16.2
PLT ([2]; female, Day 15 (pre-dose)): 2.21e+11 L⁻¹
RBC ([2]; female, Day 15 (pre-dose)): 4.94e+12 L⁻¹
RDW-CV ([2]; female, Day 15 (pre-dose)): 11.0%
RDW-SD ([2]; female, Day 15 (pre-dose)): 34.1 fL
WBC ([2]; female, Day 15 (pre-dose)): 2.07e+10 L⁻¹
abs_basos ([2]; female, Day 15 (pre-dose)): 1.9e+08 L⁻¹
abs_eos ([2]; female, Day 15 (pre-dose)): 3.7e+08 L⁻¹
abs_lymphs ([2]; female, Day 15 (pre-dose)): 2.8e+09 L⁻¹
abs_monos ([2]; female, Day 15 (pre-dose)): 6.2e+08 L⁻¹
abs_neuts ([2]; female, Day 15 (pre-dose)): 1.67e+10 L⁻¹
% BASO ([2]; male, Day 1 (pre-dose)): 0.0%
% EOS ([2]; male, Day 1 (pre-dose)): 2.6%
% MONO ([2]; male, Day 1 (pre-dose)): 0.1%
% NEUT ([2]; male, Day 1 (pre-dose)): 58.4%
HCT ([2]; male, Day 1 (pre-dose)): 34.9%
HGB ([2]; male, Day 1 (pre-dose)): 117 g/L
LYM ([2]; male, Day 1 (pre-dose)): 38.9%
MCH ([2]; male, Day 1 (pre-dose)): 25.7 pg
MCHC ([2]; male, Day 1 (pre-dose)): 335 g/L
MCV ([2]; male, Day 1 (pre-dose)): 76.7 fL
MPV ([2]; male, Day 1 (pre-dose)): 11.1 fL
PCT ([2]; male, Day 1 (pre-dose)): 0.267%
PDW ([2]; male, Day 1 (pre-dose)): 15.5
PLT ([2]; male, Day 1 (pre-dose)): 2.4e+11 L⁻¹
RBC ([2]; male, Day 1 (pre-dose)): 4.55e+12 L⁻¹
RDW-CV ([2]; male, Day 1 (pre-dose)): 11.8%
RDW-SD ([2]; male, Day 1 (pre-dose)): 38.1 fL
WBC ([2]; male, Day 1 (pre-dose)): 4.71e+09 L⁻¹
abs_basos ([2]; male, Day 1 (pre-dose)): 0 L⁻¹
abs_eos ([2]; male, Day 1 (pre-dose)): 1.2e+08 L⁻¹
abs_lymphs ([2]; male, Day 1 (pre-dose)): 1.84e+09 L⁻¹
abs_monos ([2]; male, Day 1 (pre-dose)): 0 L⁻¹
abs_neuts ([2]; male, Day 1 (pre-dose)): 2.75e+09 L⁻¹
% BASO ([2]; male, Day 8 (pre-dose)): 5.30%
% EOS ([2]; male, Day 8 (pre-dose)): 1.10%
% MONO ([2]; male, Day 8 (pre-dose)): 13.10%
% NEUT ([2]; male, Day 8 (pre-dose)): 34.60%
HCT ([2]; male, Day 8 (pre-dose)): 35.20%
HGB ([2]; male, Day 8 (pre-dose)): 117.00 g/L
LYM ([2]; male, Day 8 (pre-dose)): 45.90%
MCH ([2]; male, Day 8 (pre-dose)): 25.50 pg
MCHC ([2]; male, Day 8 (pre-dose)): 332.00 g/L
MCV ([2]; male, Day 8 (pre-dose)): 76.70 fL
MPV ([2]; male, Day 8 (pre-dose)): 10.30 fL
PCT ([2]; male, Day 8 (pre-dose)): 0.51%
PDW ([2]; male, Day 8 (pre-dose)): 15.30
PLT ([2]; male, Day 8 (pre-dose)): 4.96e+11 L⁻¹
RBC ([2]; male, Day 8 (pre-dose)): 4.59e+12 L⁻¹
RDW-CV ([2]; male, Day 8 (pre-dose)): 11.50%
RDW-SD ([2]; male, Day 8 (pre-dose)): 37.20 fL
WBC ([2]; male, Day 8 (pre-dose)): 9.15e+09 L⁻¹
abs_basos ([2]; male, Day 8 (pre-dose)): 4.9e+08 L⁻¹
abs_eos ([2]; male, Day 8 (pre-dose)): 1e+08 L⁻¹
abs_lymphs ([2]; male, Day 8 (pre-dose)): 4.19e+09 L⁻¹
abs_monos ([2]; male, Day 8 (pre-dose)): 1.21e+09 L⁻¹
abs_neuts ([2]; male, Day 8 (pre-dose)): 3.16e+09 L⁻¹
% BASO ([2]; male, Day 15 (pre-dose)): 0.10%
% EOS ([2]; male, Day 15 (pre-dose)): 3.10%
% MONO ([2]; male, Day 15 (pre-dose)): 4.40%
% NEUT ([2]; male, Day 15 (pre-dose)): 65.7%
HCT ([2]; male, Day 15 (pre-dose)): 37.4%
HGB ([2]; male, Day 15 (pre-dose)): 127 g/L
LYM ([2]; male, Day 15 (pre-dose)): 26.70%
MCH ([2]; male, Day 15 (pre-dose)): 25.3 pg
MCHC ([2]; male, Day 15 (pre-dose)): 340 g/L
MCV ([2]; male, Day 15 (pre-dose)): 74.5 fL
MPV ([2]; male, Day 15 (pre-dose)): 9.5 fL
PCT ([2]; male, Day 15 (pre-dose)): 0.593%
PDW ([2]; male, Day 15 (pre-dose)): 15.4
PLT ([2]; male, Day 15 (pre-dose)): 6.23e+11 L⁻¹
RBC ([2]; male, Day 15 (pre-dose)): 5.02e+12 L⁻¹
RDW-CV ([2]; male, Day 15 (pre-dose)): 11.5%
RDW-SD ([2]; male, Day 15 (pre-dose)): 36.3 fL
WBC ([2]; male, Day 15 (pre-dose)): 1.326e+10 L⁻¹
abs_basos ([2]; male, Day 15 (pre-dose)): 2e+07 L⁻¹
abs_eos ([2]; male, Day 15 (pre-dose)): 4.1e+08 L⁻¹
abs_lymphs ([2]; male, Day 15 (pre-dose)): 3.54e+09 L⁻¹
abs_monos ([2]; male, Day 15 (pre-dose)): 5.9e+08 L⁻¹
abs_neuts ([2]; male, Day 15 (pre-dose)): 8.7e+09 L⁻¹
